T/C data for 22 compounds are collected here from PubChem BioAssay AID328 (DTP/NCI, 2004).

Toxic doses and inconclusive results are not listed.

In the experiment the test system is BDF1 mice, P388 leukemia ip, median survival T/C. Briefly: NCI In Vivo Anticancer Drug Screen. Data for tumor model P388 Leukemia (intraperitoneal) in B6D2F1 (BDF1) mice. The conditions noted are these: endpoint: median survival time, higher = longer survival. The essentials:
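Each value expresses how treatment altered survival: treated-mouse outcome over vehicle-mouse outcome, both groups bearing the transplanted tumour.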

The mark [1] stands for this setting: dose: 50.0 mg/kg/injection, schedule: Q04DX003 (ip), vehicle: saline.
Where [2] appears, read: dose: 100.0 mg/kg/injection, schedule: Q04DX003 (ip), vehicle: saline.
Setting [3] is: dose: 200.0 mg/kg/injection, schedule: Q04DX003 (ip), vehicle: saline sonified.
Setting [4] is: dose: 400.0 mg/kg/injection, schedule: Q04DX003 (ip), vehicle: saline sonified.
The mark [5] stands for this setting: dose: 75.0 mg/kg/injection, schedule: Q01DX009 (ip), vehicle: Klucel (hydroxypropylcellulose) (HPC).
Setting [6] is: dose: 100.0 mg/kg/injection, schedule: Q01DX009 (ip), vehicle: Klucel (hydroxypropylcellulose) (HPC).
Where [7] appears, read: dose: 100.0 mg/kg/injection, schedule: Q04DX003 (ip), vehicle: Klucel (hydroxypropylcellulose) (HPC).
The mark [8] stands for this setting: dose: 150.0 mg/kg/injection, schedule: Q01DX009 (ip), vehicle: Klucel (hydroxypropylcellulose) (HPC).
The mark [9] stands for this setting: dose: 200.0 mg/kg/injection, schedule: Q01DX009 (ip), vehicle: Klucel (hydroxypropylcellulose) (HPC).
Where [10] appears, read: dose: 200.0 mg/kg/injection, schedule: Q04DX003 (ip), vehicle: Klucel (hydroxypropylcellulose) (HPC).
[11] abbreviates: dose: 300.0 mg/kg/injection, schedule: Q01DX009 (ip), vehicle: Klucel (hydroxypropylcellulose) (HPC).
Setting [12] is: dose: 400.0 mg/kg/injection, schedule: Q04DX003 (ip), vehicle: Klucel (hydroxypropylcellulose) (HPC).
Setting [13] is: dose: 50.0 mg/kg/injection, schedule: Q01DX009 (ip), vehicle: Klucel (hydroxypropylcellulose) (HPC).
The mark [14] stands for this setting: dose: 50.0 mg/kg/injection, schedule: Q01DX009 (ip), vehicle: saline with Tween-80.
Where [15] appears, read: dose: 100.0 mg/kg/injection, schedule: Q01DX009 (ip), vehicle: saline with Tween-80.
[16] abbreviates: dose: 200.0 mg/kg/injection, schedule: Q01DX009 (ip), vehicle: saline with Tween-80.
[17] abbreviates: dose: 400.0 mg/kg/injection, schedule: Q01DX009 (ip), vehicle: Klucel (hydroxypropylcellulose) (HPC).

For `OCC1(O)CC(O)C(O)(CO)CC1O` (centres undefined), the T/C reads like this: (dose: 50.0 mg/kg/injection, schedule: Q01DX009 (ip), vehicle: other) 104 % of control; under setting [1], 104 % of control; (dose: 100.0 mg/kg/injection, schedule: Q01DX009 (ip), vehicle: other) 95 % of control; under setting [2], 116 % of control; (dose: 200.0 mg/kg/injection, schedule: Q01DX009 (ip), vehicle: other) 118 % of control; (dose: 200.0 mg/kg/injection, schedule: Q04DX003 (ip), vehicle: saline) 95 % of control.

Turning to `ClC(Cl)(Cl)CC(Br)c1ccccc1` (centres undefined), the T/C by setting is: (dose: 100.0 mg/kg/injection, schedule: Q04DX003 (ip), vehicle: saline sonified) 91 % of control; under setting [3], 100 % of control; under setting [4], 100 % of control.

With `c1ccc(CSSCc2ccccc2)cc1`, the T/C is 104 % of control under setting [5]; 90 % of control under setting [6]; 100 % of control under setting [7]; 100 % of control under setting [8]; 86 % of control under setting [9]; 95 % of control under setting [10]. In addition, the T/C reads like this: under setting [11], 90 % of control; under setting [12], 95 % of control.

As for `CCCCCCCCCCCCCCCCNC(C)c1ccccc1` (centres undefined), the T/C is, setting by setting: (dose: 12.5 mg/kg/injection, schedule: Q04DX003 (ip), vehicle: saline with Tween-80) 101 % of control; (dose: 25.0 mg/kg/injection, schedule: Q04DX003 (ip), vehicle: saline with Tween-80) 106 % of control.

Turning to `CC(=O)c1cc(C)[nH]c1C`, the T/C is 115 % of control under setting [3] and 100 % of control under setting [4].

`Cc1cccc(-n2nc3c(=O)n(C)c(=O)n(C)c3nc2=O)c1`: the T/C is 88 % of control (dose: 100.0 mg/kg/injection, schedule: Q01DX001 (ip), vehicle: saline with Tween-80); 96 % of control (dose: 200.0 mg/kg/injection, schedule: Q01DX001 (ip), vehicle: saline with Tween-80); 92 % of control (dose: 400.0 mg/kg/injection, schedule: Q01DX001 (ip), vehicle: saline with Tween-80).

In the case of `NNC(=O)c1ccc(Cl)cc1Nc1ccc(F)cc1`, the T/C under setting [1] is 104 % of control and the T/C under setting [2] was 100 % of control.

As for `C1SCSCS1`, the T/C runs as follows: under setting [5], 118 % of control; (dose: 100.0 mg/kg/injection, schedule: Q01DX001 (ip), vehicle: other) 109 % of control; under setting [7], 100 % of control; under setting [8], 100 % of control; (dose: 200.0 mg/kg/injection, schedule: Q01DX001 (ip), vehicle: other) 90 % of control; under setting [10], 109 % of control. For the same compound, the T/C is 113 % of control under setting [11]; 100 % of control (dose: 400.0 mg/kg/injection, schedule: Q01DX001 (ip), vehicle: other); 113 % of control under setting [12].

As for `Cc1n[nH]c(=O)[nH]c1=O`, the T/C was 100 % of control (dose: 12.5 mg/kg/injection, schedule: Q01DX009 (ip), vehicle: Klucel (hydroxypropylcellulose) (HPC)); 109 % of control (dose: 25.0 mg/kg/injection, schedule: Q01DX009 (ip), vehicle: Klucel (hydroxypropylcellulose) (HPC)); 100 % of control under setting [13]; 91 % of control under setting [6].

For the compound `CCOC(=O)CCN(CCCN(C)C)c1cc(O)c2c(c1O)C(=O)c1ccccc1C2=O`, the T/C reads like this: (dose: 50.0 mg/kg/injection, schedule: Q01DX005 (ip), vehicle: saline with Tween-80) 89 % of control; (dose: 100.0 mg/kg/injection, schedule: Q01DX005 (ip), vehicle: saline with Tween-80) 103 % of control; (dose: 200.0 mg/kg/injection, schedule: Q01DX005 (ip), vehicle: saline with Tween-80) 108 % of control.

Consider `CCOC(=O)Cc1csc(NNC(=O)c2ccccc2)n1`, for which the T/C was 108 % of control under setting [14], 99 % of control under setting [15] and 101 % of control under setting [16].

In the case of `CCc1c(C(OC)OC)[nH]c(=S)[nH]c1=O`, the T/C was 91 % of control (dose: 100.0 mg/kg/injection, schedule: Q04DX003 (ip), vehicle: saline with Tween-80); 91 % of control (dose: 200.0 mg/kg/injection, schedule: Q04DX003 (ip), vehicle: saline with Tween-80); 87 % of control (dose: 400.0 mg/kg/injection, schedule: Q04DX003 (ip), vehicle: saline with Tween-80).

For the compound `CN(S(=O)(=O)CC(F)(F)F)S(=O)(=O)C(F)(F)F`, the T/C reads like this: (dose: 6.25 mg/kg/injection, schedule: Q01DX009 (ip), vehicle: saline) 100 % of control; (dose: 25.0 mg/kg/injection, schedule: Q01DX009 (ip), vehicle: saline) 108 % of control; (dose: 100.0 mg/kg/injection, schedule: Q01DX009 (ip), vehicle: saline) 100 % of control.

In the case of `CN1CCCC(C(=O)c2ccccc2)S1(=O)=O` (centres undefined), the T/C is, setting by setting: (dose: 100.0 mg/kg/injection, schedule: Q04DX002 (ip), vehicle: saline with Tween-80) 104 % of control; (dose: 200.0 mg/kg/injection, schedule: Q04DX002 (ip), vehicle: saline with Tween-80) 114 % of control; (dose: 400.0 mg/kg/injection, schedule: Q04DX002 (ip), vehicle: saline with Tween-80) 107 % of control.

In the case of `CC1=NN(c2ccccc2)C(=O)/C1=C\c1ccc(N(CCC#N)CCC#N)cc1`, the T/C by setting is: under setting [13], 87 % of control; under setting [6], 93 % of control; under setting [9], 87 % of control; under setting [17], 91 % of control.

In the case of `NC(=O)N/N=C(\CF)C(=O)O`, the T/C runs as follows: (dose: 6.0 mg/kg/injection, schedule: Q01DX009 (ip), vehicle: Klucel (hydroxypropylcellulose) (HPC)) 105 % of control; (dose: 12.0 mg/kg/injection, schedule: Q01DX009 (ip), vehicle: Klucel (hydroxypropylcellulose) (HPC)) 105 % of control; (dose: 24.0 mg/kg/injection, schedule: Q01DX009 (ip), vehicle: Klucel (hydroxypropylcellulose) (HPC)) 115 % of control; (dose: 48.0 mg/kg/injection, schedule: Q01DX009 (ip), vehicle: Klucel (hydroxypropylcellulose) (HPC)) 105 % of control.

In the case of `O=C1C(N2CCCC2)=C(N2CC2)C(=O)C(N2CCCC2)=C1N1CC1`, under “dose: 0.25 mg/kg/injection, schedule: Q01DX009 (ip), vehicle: saline”, the T/C is 172 % of control.

In the case of `COC1C(O)CC(=O)OC(C)C/C=C/C=C/C(OC2CCC(N(C)C)C(C)O2)C(C)CC(CC=O)C1OC1OC(C)C(OC2CC(C)(O)C(O)C(C)O2)C(N(C)C)C1O` (centres undefined), the T/C was 102 % of control (dose: 6.25 mg/kg/injection, schedule: Q01DX009 (ip), vehicle: saline with Tween-80); 94 % of control (dose: 12.5 mg/kg/injection, schedule: Q01DX009 (ip), vehicle: saline with Tween-80); 100 % of control (dose: 25.0 mg/kg/injection, schedule: Q01DX009 (ip), vehicle: saline with Tween-80).

For the compound `Clc1ccc(C2(C3CCNCC3)CCCO2)cc1` (centres undefined), the T/C is 106 % of control under setting [14] and 90 % of control under setting [15].

Regarding `Cc1nc2ccccc2c(=O)n1/N=C/c1ccco1`, the T/C is 107 % of control under setting [14] and 90 % of control under setting [15].

For `CCCCCCC(c1c(O)cc(C)[nH]c1=O)c1c(O)cc(C)[nH]c1=O`, the T/C was 96 % of control under setting [14], 96 % of control under setting [15] and 90 % of control under setting [16].

With `CCOC(=O)CC(=Nc1ccccc1OC)C(=O)OCC`, the T/C by setting is: under setting [6], 86 % of control; under setting [7], 104 % of control; under setting [9], 86 % of control; under setting [10], 95 % of control; under setting [17], 104 % of control; under setting [12], 95 % of control.
